Read-outs that look alike come from different tables or passages of the source. Non-standard residues stand in square brackets, D forms with d. Residues, ends and D or L forms follow the SMILES beside them. *: point of attachment. Nva = CCC[C@H](N)C(=O)O; Cbz = O=C(OCc1ccccc1)*

One may read the EC50 as the concentration at which the effect is half-maximal. Usually EC90 stands for the concentration at which the effect reaches the 90% level.

In data set [1] the test system is SARS-CoV-2 strain BavPat1. Put plainly: microbe, parasite or virus in culture. The class given is cell-based. Particulars: Severe acute respiratory syndrome coronavirus 2; VeroE6-TMPRSS2+ cells, pilot study.
For data set [2], the system named is SARS-CoV-2 strain BavPat1. Particulars: Vero-E6 cells.
A short description of data set [3]: in vitro. Particulars: African green monkey.
The test system of data set [4] is SARS-CoV-2 strain BavPat1. Kind of data set: microbe, parasite or virus in culture. Particulars: Severe acute respiratory syndrome coronavirus 2, Vero C1008, 48 h.
Data set [5] is described as follows: in vitro. Particulars: human.
In data set [6] the test system is SARS-CoV-2 strain BavPat1. Put plainly: SARS-CoV-2 replication inhibition in Caco-2 cells (viral RNA RT-qPCR). Particulars: for SI = CC50/EC50: Caco-2 cells; for EC50 / EC90: Severe acute respiratory syndrome coronavirus 2, Caco-2, 48 h. (Real-time PCR tracks product formation cycle by cycle.)
Data set [7] is described as follows: Cytotoxicity in VeroE6 cells (CellTiter Blue). Particulars: African green monkey. (Alamar Blue is a resazurin reagent that responds to reducing activity.)

With `CC(C)C[C@@H](C=O)NC(=O)[C@H](CC(C)C)NC(=O)[C@H](Cc1ccccc1)NC(=O)OCc1ccccc1` [Compound 4] (Cbz-Phe-Leu-Leu-aldehyde), in data set [1], the 50% effective concentration (EC50) is above 2000 nM and the EC90 was above 2000 nM. In data set [2], the “SI = CC50/EC50” value was 49.69; the “balance between virus inhibition and cytotoxicity (selectivity index), in words” value is recorded as “best selectivity index”. The CC50 at 2 days in the data set “in vitro [3]” came to 6460 nM. In data set [4], a half-maximal effect (EC50) was put at 130 nM and the EC90 was found to be 600 nM.

On to `CC(C)C[C@@H](C=O)NC(=O)[C@H](CC(C)C)NC(=O)[C@H](CC(C)C)NC(=O)OCc1ccccc1` [Compound 1] (Cbz-Leu-Leu-Leu-aldehyde), for which the values for the EC50 in data set [1], in data set [4] and in data set [6] were 850 nM, 120 nM and 120 nM, respectively. In addition, the figures for the EC90 in data set [1], in data set [4] and in data set [6] were 3300 nM, 500 to 1000 nM and 130 nM, respectively. Besides, the “SI = CC50/EC50” value in data set [2] was found to be 22.8; in data set [6], 1.89. Also, in data set [2], the “balance between virus inhibition and cytotoxicity (selectivity index), in words” value was “advantageous balance”. In addition, the CC50 at 2 days turned out to be 2790 nM in “in vitro [3]” and 230 nM in the data set “in vitro [5]”.

Regarding `CC(=O)N[C@@H](CC(C)C)C(=O)N[C@@H](CC(C)C)C(=O)N[C@H](C=O)CC(C)C` [Compound 3] (Ac-Leu-Leu-Leu-aldehyde), in data set [2], the “SI = CC50/EC50” value is above 45.2; the “balance between virus inhibition and cytotoxicity (selectivity index), in words” value is given as “best selectivity index”. This compound displayed a CC50 at 2 days in the data set “in vitro [3]” of 13600 nM. Also, in data set [4], the EC50 is below 300 nM and the EC90 was determined as 1570 nM.

In data set [1], `CC(C)C[C@@H](C=O)NC(=O)[C@H](Cc1ccccc1)NC(=O)[C@H](CC(C)C)NC(=O)OCc1ccccc1` [Compound 6] (Cbz-Leu-Phe-Leu-aldehyde) displayed a concentration giving a half-maximal response (EC50) of 140 nM and an EC90 above 2000 nM. In data set [2], the “SI = CC50/EC50” value is on record as 12.92; the “balance between virus inhibition and cytotoxicity (selectivity index), in words” value is on record as “best selectivity index”. Moreover, the CC50 at 2 days in the data set “in vitro [3]” is 1680 nM. In data set [4], this compound registered an EC50 of 310 nM and an EC90 of 11200 nM.

Regarding `CC(C)C[C@H](NC(=O)[C@H](Cc1ccccc1)NC(=O)c1cnccn1)B(O)O` [Compound 9, reference compound], in data set [2], the “SI = CC50/EC50” value came out at 0.22; the “balance between virus inhibition and cytotoxicity (selectivity index), in words” value is “not favourable”. Further, the CC50 at 2 days in “in vitro [3]” was 230 nM. Moreover, in data set [4], the response was half-maximal at 1050 nM (EC50) and the EC90 is 21500 nM.

Consider `CC(C)C[C@H](NC(=O)OCc1ccccc1)C(=O)N[C@@H](CC(C)C)C(=O)N[C@H](C=O)Cc1ccccc1` [Compound 5] (Cbz-Leu-Leu-Phe-aldehyde), for which the EC50 came to 1780 nM in data set [1], 60 nM in data set [4] and 90 nM in data set [6]. In addition, the results for the EC90 in data set [1], in data set [4] and in data set [6] were 2300 nM, 1930 nM and 470 nM, respectively. Besides, the entries for the “SI = CC50/EC50” value in data set [2] and in data set [6] were above 33.3 and 5.13, respectively. For the same compound, in data set [2], the “balance between virus inhibition and cytotoxicity (selectivity index), in words” value was “best selectivity index”. Further, the CC50 at 2 days is above 2000 nM in “in vitro [3]” and 480 nM in “in vitro [5]”.

Consider `CC(C)C[C@@H](C=O)NC(=O)[C@H](CC(C)C)NC(=O)[C@H](CC(C)C)NC(=O)Cc1ccc(F)cc1F` [Compound 8], for which, in data set [2], the “SI = CC50/EC50” value was above 3.84; the “balance between virus inhibition and cytotoxicity (selectivity index), in words” value is reported as “advantageous balance”. Moreover, the CC50 at 2 days in the data set “in vitro [3]” was above 2000 nM. In data set [4], this compound yielded an EC50 of 520 nM and an EC90 of 1280 nM.

In data set [1], `CCC(CC)COC(=O)[C@H](C)N[P@](=O)(OC[C@H]1O[C@@](C#N)(c2ccc3c(N)ncnn23)[C@H](O)[C@@H]1O)Oc1ccccc1` [Rem, Remdesivir, reference compound] showed an EC90 of 1660 nM. Also, in data set [4], the 50% effective concentration (EC50) is 2180 nM and the 90% effect level (EC90) was put at 2450 nM.

As for `CCC[C@@H](C=O)NC(=O)[C@H](CC(C)C)NC(=O)[C@H](CC(C)C)NC(=O)OCc1ccccc1` [Compound 2] (Cbz-Leu-Leu-[Nva]-aldehyde), in data set [2], the “SI = CC50/EC50” value is listed as above 33.3; the “balance between virus inhibition and cytotoxicity (selectivity index), in words” value is listed as “best selectivity index”. Further, the CC50 at 2 days in the data set “in vitro [3]” is above 2000 nM. In “in vitro [5]”, this compound returned a CC50 at 2 days of 450 nM. In addition, in data set [4], a half-maximal effect (EC50) was put at 60 nM and it took 160 nM to reach the 90% level (EC90). Moreover, in data set [6], the “SI = CC50/EC50” value worked out at 3.50, the EC50 came out at 130 nM and the EC90 was 630 nM.

Turning to `CC(C)C[C@@H](C=O)NC(=O)[C@H](CC(C)C)NC(=O)[C@H](CC(C)C)NC(=O)c1cnccn1` [Compound 7], in data set [2], the “SI = CC50/EC50” value is reported as above 2.94; the “balance between virus inhibition and cytotoxicity (selectivity index), in words” value is reported as “advantageous balance”. In data set [4], the response was half-maximal at 680 nM (EC50) and the 90% effect level (EC90) was put at 1930 nM. This compound returned a CC50 at 2 days in data set [7] above 2000 nM.

(Values after patent publication US20240009263A1, “COMPOUNDS FOR TREATING ENVELOPED VIRUS INFECTIONS” (priority 2020, published 2024).)
